Data: patent US20230416785A1, “NUCLEASE AND APPLICATION THEREOF” (CRISP-HR Therapeutics, Inc., priority 2020, published 2023)
Entries after “also recorded” stand apart in the source; their conditions may differ.

Columns and labels:
[1] = tested on: A549 cells; test: Cellular toxicity / viability of transfected A549 cells (resazurin assay); type: cell-based
Protocol: A549 cells were chosen as they are both facile to grow and transfect, cost effective in terms of media and other reagents, and importantly have retained a functional p53 gene.
Cells were then allowed to recover for one additional day, after which viability was cells were incubated with resazurin (Millipore Sigma) for 4 hours, after which fluorescence was quantified by a plate reader (Perkin Elmer).
Unless otherwise noted, adherent cells (A549 or H1299) were seeded in 96 well plates and grown in either 50/50 F-12/DMEM or RPMI-1640 respectively, supplemented with 5% FBS and grown to roughly 70% confluency. Cells were then transfected with either Cal-Phos as described in Chen 2012 or Lipofectamine 3000 (Thermofisher). Fresh media was exchanged the next day and cellular viability was quantified on day 2.
20 μL of 0.15 mg/mL Resazurin solution was added to cells either plated in 96 well plates for all cell lines, which were then incubated for ˜4 hours at 37° C. Cellular toxicity was quantified using a Tecan SpectraFlour Plus plate reader (Tecan) using a 535/595 filter set. Raw data was then normalized to the mean of the untransfected controls and plotted as described.
20 μL of 0.15 mg/mL Resazurin solution was added to cells either plated in 96 well plates for all cell lines, which were then incubated for ˜4 hours at 37° C. Cellular toxicity was quantified using a Tecan SpectraFlour Plus plate reader (Tecan) using a 535/595 filter set. Raw data was then normalized to the mean of the untransfected controls and plotted as described. […] Stats: All two-sided students T-test with unequal variance.

[2] = tested on: endogenous H2B; test: H2B-mNeon knock-in HDR quantification in K562 cells; type: cell-based, human; conditions: H2B-mNeon RT
Protocol: After two days, cells were fixed in 4% PFA washed in PBS, then directly imaged, with cells showing nuclear localized fluorescence counted as successful HDR events.
K562 were grown in 24 well plates with RPMI-1640 supplemented with 5% FBS until roughly 70% confluent. At that time cells were either electroporated using the mNeon system (Invitrogen) using optimized settings for K562 cells, or lipofectamine 3000 again following manufactures instructions. Cells were then returned to 24 well plates with fresh media and grown for at least two days before being used in downstream analysis.
After 2 days, cells attached to coverslips coated with 0.01% poly-1-lysine, and were fixed in 4% PFA (Thermofisher) for 15 minutes at RT. After fixation, cells were washed 3× in PBS, mounted in 50% glycerol and imaged on a Nikon Eclipse E600 with standard FITC filters. For quantification, random patches of cells (usually between 8-15 cells per image) were identified via Brightfield, then fluoresce images were taken with constant illumination and exposure time (100%, and 110 ms respectively).

[3] = tested on: HBB amplicon; test: In-vitro exonuclease assay with purified proteins; type: biochemical, human; conditions: 30 nM protein, 3 nM HBB amplicon, 37° C., 60 minutes
Protocol: Reactions were then electrophoresed and visualized on an agarose gel. FIG. 5C illustrates quantification of exonuclease activity. Quantification of exonuclease activity assayed in FIG. 5B. 3 replicates were performed for each reaction and were quantified via FIJI (ImageJ) and then normalized to control amplicon levels.
Reactions were then electrophoresed and visualized on an agarose gel.
DNA was isolated from wildtype K562 cells, and amplified using standard Taq DNA polymerase and HBB-out-F (5′-[…]-3′ (SEQ ID NO: 125)) and HBB-out-R (5′-[…]-3′ (SEQ ID NO: 126)), Tm=56 for 35 cycles, and purified using the Qiagen PCR cleanup kit. […] The samples were then electrophoresed on a standard 1% TAE agarose gel stained with gel green.

[4] = tested on: Beta-Catenin1; test: Beta-Catenin1:mCherry HDR in H1299 cells; type: cell-based, human
Protocol: After three days, media was replaced with HBSS (to reduce background for imaging) imaged using an EVOS M5000 imaging system. Imaging was performed by randomly finding and focusing on at least ten different sections per well using a 20× magnification lens, after which both brightfield and RFP images were acquired. Imaged were quantified by hand, using control images as the basis for RFP/mCherry background fluorescence.

[5] = tested on: Beta-Catenin1; test: Beta-Catenin1:mCherry knock-in in HEK293 cells; type: cell-based, human
[6] = tested on: Cadherin1; test: Cadherin1:mCherry HDR in H1299 cells; type: cell-based, human
Protocol: After three days, media was replaced with HBSS (to reduce background for imaging) imaged using an EVOS M5000 imaging system. Imaging was performed by randomly finding and focusing on at least ten different sections per well using a 10× magnification lens, after which both brightfield and RFP images were acquired. Imaged were quantified by hand, using control images as the basis for RFP/mCherry background fluorescence.

[7] = tested on: CHO-SHS-1.2; test: CHO cell Cas9-HR8 stable knock-in, anti-Cas9 western blot; type: cell-based; conditions: CHO cells; CHO-SHS-1.2-G1; Puromycin 10 days, then 12 days without
Protocol: CHO-Freestyle Cells (Invitrogen) were grown to ˜70% confluency, after which were transfected using the Neon (Thermo) transfection system and 250 ng of Cas9-HR8, 250 ng of either CHO-SHS-1.2-G1, and 50 ng CHO-SHS-1.2-pCAG-Cas9-HR8-IRES-PuroR RT. Cells were allowed to recover for two days, then treated with […] Puromycin for 10 days, after which Puromycin selection was removed. Cells were grown for an additional 12 days, after which cells split and half were frozen, while the other half was treated with RIPA buffer (Santa-Cruz) to extract protein, with non-transfected control CHO cells protein also extracted via RIPA buffer. Lysate was normalized and 7.5 ug total protein was loaded onto a 4-12% Bis-Tris Acrylamide gel (Invitrogen), and transferred to nitrocellulose using BioRad blotting and transfer system (BioRad). Membrane was washed 3× with 1×PBST (BioRad), blocked for 10 minutes using EveryBlot blocking solution (BioRad), and incubated for 1 hr at RT with a 1:1000 dilution of mouse anti-Cas9 (SantaCruz). Membrane was washed 5× for 5 minutes each in PBST, then incubated for an hour with 1:1000 rabbit anti-mouse-HRP secondary antibody for 1 hr at RT. Membrane was then washed 5× for 5 minutes each in PBST, after which a 1× NC/DAB (ThermoFisher) solution was used to visualize bands. FIG. 22A illustrates an exemplary diagram showing CHO cell Cas9-HR8 stable knock-in protocol. […]

[8] = comparison with Dna2 fusions, day 3

**Q.** How did the “cellular viability relative to Cas9” value ([1]; Cadherin1 G1 or G2, Day 2 post transfection) turn out when “Cas9-HR 8: hExo1(1-352)-Cas9 fusion of FIG. 1A; E. coli codon optimized vectors SEQ ID NO: 68 and 69” was run?
**A.** significant increases in cellular viability

**Q.** And the “cellular toxicity compared to Cas9” value ([1]; H2B-G4 guide, lipofectamine 3000)?
**A.** significant reduction in cellular toxicity

**Q.** What about the cellular toxicity ([1]; Int-G2 and Int-G3, CalPhos) of the same substance?
**A.** dramatic reduction in cellular toxicity

**Q.** And the “cellular viability relative to Cas9” value ([1]; SHS-231 G1, G2 or G3, Day 2 post transfection)?
**A.** significant increases in cellular viability

**Q.** And the “PCR of 5′ and 3′ knock-in junctions” value ([2]; genome specific plus RT specific primers)?
**A.** Successful amplification

**Q.** And the “HDR rate (cells with nuclear localized mNeon fluorescence)” value ([2]; hH2B-G4, two days, compared to Cas9-HR 4 or Cas9)?
**A.** significant increase in HDR rate

**Q.** And the “exonuclease activity (reduction of full length HBB amplicon)” value [3]?
**A.** significant reduction in the full length HBB amplicon; also recorded: significant exonuclease activity

**Q.** What about the “fold change in mCherry+ cells relative to Cas9” value ([4]; G2, day 3) of the same substance?
**A.** ~2.5 fold

**Q.** What about the “fold change in mCherry+ cells relative to Cas9” value ([4]; G3, day 3) of the same substance?
**A.** ~2.5 fold

**Q.** What about the “fold increase in mCherry+ cells relative to Cas9” value ([4]; all guide polynucleotides (G1, G2, G3), day 3) of the same substance?
**A.** > 2 fold

**Q.** What about the “mCherry+ cells compared to Cas9” value ([4]; all three gRNAs, day 3) of the same substance?
**A.** significant increases in mCherry+ cells

**Q.** And the “positive cell count compared to Beta-Catenin1:mCherry alone” value ([4]; average mCherry+ cells per image section, day 3)?
**A.** significant increases in positive cell count

**Q.** And the “HDR rates compared to Cas9 (normalized knock-in rates)” value ([5]; B-Cat-G3)?
**A.** ~2.5 ×

**Q.** What about the “absolute mCherry+ cells relative to Cas9-NT or repair template alone” value ([5]; Beta-Catenin-G1) of the same substance?
**A.** significant increases in mCherry+ cells

**Q.** And the “numbers of mCherry+ cells compared to repair template” value ([5]; Beta-Catenin-G1)?
**A.** significantly increased numbers of mCherry+ cells

**Q.** What about the “mCherry+ cells, whole well imaging” value ([6]; H1299 cells, 12 well plate, Ecad-G1, 4 Days after transfection) of the same substance?
**A.** significant amounts of mCherry+ cells; also recorded: significantly higher amounts of mCherry+ cells

**Q.** What about the “fold change in mCherry+ cells relative to Cas9” value ([6]; H1299 cells, G1, day 3) of the same substance?
**A.** ~2.3 fold

**Q.** And the “fold increase in mCherry+ cells relative to Cas9” value ([6]; H1299 cells, all guide polynucleotides, day 3)?
**A.** > 1.5 fold

**Q.** What about the “mCherry+ cells compared to Cas9” value ([6]; H1299 cells, all three gRNAs (so in the source), day 3) of the same substance?
**A.** significant increases in mCherry+ cells

**Q.** And the “positive cell count compared to Cadherin1:mCherry alone” value ([6]; H1299 cells, average mCherry+ cells per image section, day 3)?
**A.** significant increases in positive cell count

**Q.** And the “normalized Cadherin1:mCherry HDR rate (fold change compared to Cas9)” value ([6]; comparison with Dna2 fusions)?
**A.** significantly higher HDR rate

**Q.** And the “mCherry+ cell count compared to Cadherin1:mCherry RT alone” value [6, 8]?
**A.** significant increases in mCherry+ cell count

**Q.** And the “mCherry+ cells compared to Cas9” value [6, 8]?
**A.** significant increases in mCherry+ cells

**Q.** What about the “stable knock-in of Cas9-HR8 repair template (over 8 kb), anti-Cas9 western blot” value [7] of the same substance?
**A.** stably integrated Cas9-HR8
